PMC7003846, “Effects of the ventilatory stimulant, doxapram on human TASK‐3 (KCNK9, K2P9.1) channels and TASK‐1 (KCNK3, K2P3.1) channels” (Acta Physiologica (Oxford, England), 2019)
Where two headings read alike, the source gives them in different places.

Legend:
TASK-3_L122D = biological target: T1, TASK-3_L122D (Homo sapiens, UniProt Q9NPC2, L122D); assay: Whole-cell patch clamp, human TASK-3 pore mutant L122D; type: cell-based; conditions: 100 µM
T1 construct: expressed in transfected cells; host or cells: tsA201 (modified HEK293), transient transfection
From the text: (§1) Murine (mur) wild‐type (WT) TASK‐1 (KCNK3, Genbank^TM DQ185133) and WT murTASK‐3 (KCNK9, Genbank^TM AH009585.2) cDNA were cloned into pCS2^+ vector and were a kind gift from William Wisden (Imperial College, UK). Human WT TASK‐1 (Genbank^TM AF006823.1), WT TASK‐3 (Genbank^TM AF212829) and WT TASK‐2 (KCNK5, Genbank^TM AF084830.1) cDNA’s, were cloned into pcDNA3.1^+ vector (Invitrogen) and were a kind gift from Helen Meadows (GlaxoSmithKline).
Point mutations (L122D, G236D, L239D, V242D or a stop codon) were introduced by site‐directed mutagenesis into TASK‐3 cDNA using the Quikchange kit (Stratagene) as previously described.54 […]
Currents were recorded from tsA201 cells transiently transfected with the channel of interest using whole‐cell patch clamp in a voltage clamp configuration and a step‐ramp voltage protocol as previously described.54 Briefly, all experiments were conducted at room temperature (20‐24°C) using an external solution composed of 145 mM of NaCl, 2.5 mM of KCL, 3 mM of MgCl2, 1 mM of CaCl2 and 10 mM of HEPES (pH 7.4, using NaOH) and an intracellular pipette solution composed of 150 mM of KCL, 3 mM of MgCl2, 5 mM of EGTA and 10 mM of HEPES (pH adjusted to 7.4 with KOH). […] Currents were recorded using an Axopatch 1D patch clamp amplifier (Molecular Devices), filtered at 0.3 kHz, digitized at 1 kHz. […]

human TASK-3 = biological target: T2, human TASK-3 (Homo sapiens, UniProt Q9NPC2); assay: Whole-cell patch clamp on tsA201 cells expressing cloned human TASK-3; type: cell-based; conditions: for inhibition of human TASK-3 current: acute application
T2 construct: expressed in transfected cells; host or cells: tsA201 (modified HEK293), transient transfection, pcDNA3.1+
Description: as §1
(§2) All experiments were performed using a modified human embryonic kidney 293 cell line, tsA201 (ECACC; Sigma‐Aldrich), prepared and maintained as previously described.54
(§3) For the electrophysiological experiments, cells were transiently transfected using a modified calcium phosphate protocol, following a process as previously described.54 Vectors cloned with the gene of interest and a similar vector encoding the cDNA for GFP were added to each well at a concentration of 0.5 µg per well, with the exception being for murTASK‐3, where 0.125 µg per well was used.
(§4) Currents were recorded from tsA201 cells transiently transfected with the channel of interest using whole‐cell patch clamp in a voltage clamp configuration and a step‐ramp voltage protocol as previously described.54 Briefly, all experiments were conducted at room temperature (20‐24°C) using an external solution composed of 145 mM of NaCl, 2.5 mM of KCL, 3 mM of MgCl2, 1 mM of CaCl2 and 10 mM of HEPES (pH 7.4, using NaOH) and an intracellular pipette solution composed of 150 mM of KCL, 3 mM of MgCl2, 5 mM of EGTA and 10 mM of HEPES (pH adjusted to 7.4 with KOH). External solution and modulatory compounds were superfused at a rate of 4‐5 mL min^−1. Currents were recorded using an Axopatch 1D patch clamp amplifier (Molecular Devices), filtered at 0.3 kHz, digitized at 1 kHz.
(§5) For analysis of outward current, we measured the current difference between the −80 and −40 mV. The current‐voltage graphs were obtained from the ramp change in voltage between −120 and +20 mV. For each cell, the current amplitude (pA) was normalized to the cell capacitance (pF). The currents obtained were analysed using pCLAMP 10.2 software (Molecular Devices), Microsoft Excel and GraphPad Prism 6 or 7 software. Data were expressed as the mean ± 95% Confidence Intervals (CI), and n represents the number of individual cells. For EC50 calculations, concentration‐response curves were fitted using the Hill equation. Statistical analysis used were one‐way ANOVA with a post‐hoc Dunnett's test or an unpaired/paired Student's t test. Data were considered statistically different if P < .05. The data and statistical analysis comply with the recommendations on experimental design and analysis in pharmacology.55

human TASK-1 = biological target: T3, human TASK-1 (Homo sapiens, UniProt O14649); assay: Whole-cell patch clamp on tsA201 cells expressing cloned human TASK-1; type: cell-based; conditions: for inhibition of human TASK-1 current: acute application
T3 construct: expressed in transfected cells; host or cells: tsA201 (modified HEK293), transient transfection, pcDNA3.1+
Description: as §1, §2, §3, §4, §5

murTASK-1 = biological target: T4, murTASK-1 (Mus musculus, UniProt O35111); assay: Whole-cell patch clamp on tsA201 cells expressing cloned mouse TASK-1; type: cell-based; conditions: 10 µM, acute application
T4 construct: expressed in transfected cells; host or cells: tsA201 (modified HEK293), transient transfection, pCS2+
Description: as §1, §2, §3, §4, §5

[1] = opioid challenged cynomolgus monkeys, intravenous; cited from earlier work
murTASK-3 = biological target: T5, murTASK-3 (Mus musculus, UniProt Q3LS21); assay: Whole-cell patch clamp on tsA201 cells expressing cloned mouse TASK-3; type: cell-based; conditions: 10 µM, acute application
T5 construct: expressed in transfected cells; host or cells: tsA201 (modified HEK293), transient transfection, pCS2+
Description: as §1, §2, §3, §4, §5

[2] = opioid challenged rats, intravenous; cited from earlier work

T3 sequence (O14649 whole entry): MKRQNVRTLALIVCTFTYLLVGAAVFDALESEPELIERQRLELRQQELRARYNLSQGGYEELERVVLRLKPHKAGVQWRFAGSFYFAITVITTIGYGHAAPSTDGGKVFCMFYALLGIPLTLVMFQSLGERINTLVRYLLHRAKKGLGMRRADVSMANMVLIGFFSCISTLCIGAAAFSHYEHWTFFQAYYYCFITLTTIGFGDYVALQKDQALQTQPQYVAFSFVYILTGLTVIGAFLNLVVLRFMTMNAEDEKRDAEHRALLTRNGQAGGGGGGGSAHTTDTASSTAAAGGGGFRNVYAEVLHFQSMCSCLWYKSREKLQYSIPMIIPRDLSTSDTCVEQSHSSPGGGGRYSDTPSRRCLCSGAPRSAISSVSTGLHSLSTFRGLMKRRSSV
T2 sequence (Q9NPC2 whole entry): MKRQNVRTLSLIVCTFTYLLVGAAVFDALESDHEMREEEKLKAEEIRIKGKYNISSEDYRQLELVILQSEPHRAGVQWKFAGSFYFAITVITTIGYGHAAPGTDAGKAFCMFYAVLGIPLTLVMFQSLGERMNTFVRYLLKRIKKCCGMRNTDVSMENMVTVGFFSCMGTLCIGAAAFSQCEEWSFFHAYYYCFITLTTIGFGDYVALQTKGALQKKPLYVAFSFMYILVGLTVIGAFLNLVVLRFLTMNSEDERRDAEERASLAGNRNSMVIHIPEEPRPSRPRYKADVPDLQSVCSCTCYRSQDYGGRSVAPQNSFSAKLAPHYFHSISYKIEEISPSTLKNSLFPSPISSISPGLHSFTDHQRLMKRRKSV
T4 sequence (O35111 whole entry): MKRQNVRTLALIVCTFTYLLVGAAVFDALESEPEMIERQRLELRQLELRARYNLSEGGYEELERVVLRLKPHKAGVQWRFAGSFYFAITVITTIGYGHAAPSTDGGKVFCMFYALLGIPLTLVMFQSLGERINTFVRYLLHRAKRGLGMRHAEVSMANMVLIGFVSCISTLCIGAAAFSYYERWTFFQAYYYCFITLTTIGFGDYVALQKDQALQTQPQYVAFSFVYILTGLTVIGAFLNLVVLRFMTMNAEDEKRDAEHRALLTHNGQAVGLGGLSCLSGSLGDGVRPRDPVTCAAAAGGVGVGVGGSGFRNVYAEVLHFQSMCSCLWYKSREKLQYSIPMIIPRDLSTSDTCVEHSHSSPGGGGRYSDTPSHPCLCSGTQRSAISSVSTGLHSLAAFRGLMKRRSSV
T1 sequence (Q9NPC2 whole entry L122D): as the sequence (Q9NPC2 whole entry) above, with L122D counted along it
T5 sequence (Q3LS21 whole entry): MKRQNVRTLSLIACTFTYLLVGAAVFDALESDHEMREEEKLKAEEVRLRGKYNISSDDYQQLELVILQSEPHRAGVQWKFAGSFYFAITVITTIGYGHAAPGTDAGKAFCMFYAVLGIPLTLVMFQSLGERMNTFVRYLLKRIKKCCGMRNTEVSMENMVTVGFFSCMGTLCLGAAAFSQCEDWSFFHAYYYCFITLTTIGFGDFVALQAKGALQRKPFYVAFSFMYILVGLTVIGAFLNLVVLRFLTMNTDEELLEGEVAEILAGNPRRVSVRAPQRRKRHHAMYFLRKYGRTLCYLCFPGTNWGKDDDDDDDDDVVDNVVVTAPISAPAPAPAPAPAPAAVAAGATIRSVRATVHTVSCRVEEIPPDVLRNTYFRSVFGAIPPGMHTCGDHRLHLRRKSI

inhibition of TASK-3_L122D (TASK-3_L122D) [%]	inhibition of human TASK-3 current (human TASK-3; 100 µM, WT) [%]	inhibition of human TASK-1 current (human TASK-1; 1 µM) [%]	inhibition of human TASK-1 current (human TASK-1; 3 µM) [%]	inhibition of human TASK-1 current (human TASK-1; 10 µM) [%]	EC50 (human TASK-1; tsA201 cells, whole-cell patch clamp, room temperature, read-out: EC50, inhibition of human TASK-1 current) [nM]	inhibition of human TASK-3 current (human TASK-3; 1 µM) [%]	inhibition of human TASK-3 current (human TASK-3; 3 µM) [%]	inhibition of human TASK-3 current (human TASK-3; 10 µM, WT) [%]	EC50 (human TASK-3; tsA201 cells, whole-cell patch clamp, room temperature, read-out: EC50, inhibition of human TASK-3 current) [nM]	current inhibition of murTASK-1 (murTASK-1) [%]	current inhibition of murTASK-3 (murTASK-3) [%]	SMILES	effect on minute volume [1]	effect on minute volume [2]
87	94											[Cl-].[Cl-].[Zn+2] [zinc, Zinc Chloride]		
		45	54	75	~1600	43	66	79	~1400	63	33	CCN1CC(CCN2CCOCC2)C(c2ccccc2)(c2ccccc2)C1=O (centres unmarked) [GAL‐054]	dose‐dependently increased minute volume	dose‐dependently increased minute volume
